Structures can show the parent of a compound that is named as a salt.

This is an account of results in patent US8148373B2, “Compounds” (AstraZeneca AB, priority 2008, dated 2012).

Assay [1] has as its target T1, Adrenergic β2 (H292 cells) (Homo sapiens, UniProt P07550).
T1 construct: endogenous in cells; host or cells: H292 cells
Briefly: Assay for Adrenergic β2 Mediated cAMP Production (concentration response, AlphaScreen cAMP detection). Particulars: for EC50: cAMP production, 60 minutes at room temperature, 300 μM rolipram, read-out: β2 pEC50 (converted); for β2 Intrinsic activity: fraction relative to the maximum activity determined for formoterol. It counts as cell-based. The procedure: Assay for Adrenergic β2 Mediated Camp Production
H292 cells are grown in 225 cm2 flasks incubator at 37° C., 5% CO2 in RPMI medium containing 10% (v/v) FBS (foetal bovine serum) and 2 mM L-glutamine.
Adherent H292 cells are removed from tissue culture flasks by treatment with Accutase™ cell detachment solution for 15 minutes. Flasks are incubated for 15 minutes in a humidified incubator at 37° C., 5% CO2. Detached cells are re-suspended in RPMI media (containing 10% (v/v) FBS and 2 mM L-glutamine) at 0.1×10^6 cells per mL. 10000 cells in 100 μL are added to each well of a tissue-culture-treated 96-well plate and the cells incubated overnight in a humidified incubator at 37° C., 5% CO2. The culture media is removed and cells are washed twice with 100 μL assay buffer and replaced with 50 μL assay buffer (HBSS solution containing 10 mM HEPES pH7.4 and 5 mM glucose). Cells are rested at room temperature for 20 minutes after which time 25 μL of rolipram (1.2 mM made up in assay buffer containing 2.4% (v/v) dimethylsulphoxide) is added. Cells are incubated with rolipram for 10 minutes after which time test compounds are added and the cells are incubated for 60 minutes at room temperature. The final rolipram concentration in the assay is 300 μM and final vehicle concentration is 1% (v/v) dimethylsulphoxide. The reaction is stopped by removing supernatants, washing once with 100 μL assay buffer and replacing with 50 μL lysis buffer. The cell monolayer is frozen at −80° C. for 30 minutes (or overnight).
AlphaScreen™ cAMP Detection
The concentration of cAMP (cyclic adenosine monophosphate) in the cell lysate is determined using AlphaScreen™ methodology. The frozen cell plate is thawed for 20 minutes on a plate shaker then 10 μL of the cell lysate is transferred to a 96-well white plate. 40 μL of mixed AlphaScreen™ detection beads pre-incubated with biotinylated cAMP, is added to each well and the plate incubated at room temperature for 3 hours in the dark. The AlphaScreen™ signal is measured using an EnVision spectrophotometer (Perkin-Elmer Inc.) with the recommended manufacturer's settings. cAMP concentrations are determined by reference to a calibration curve determined in the same experiment using standard cAMP concentrations. Concentration response curves for agonists are constructed and data is fitted to a four parameter logistic equation to determine both the pEC50 and Intrinsic Activity. Intrinsic Activity is expressed as a fraction relative to the maximum activity determined for formoterol in each experiment.

Assay [2] concerns the target T2, human muscarinic acetylcholine M3 receptor (M3-ACh) (Homo sapiens, UniProt P20309).
T2 construct: expressed in transfected cells; host or cells: CHO-K1 (Chinese Hamster Ovary) cell membranes
Nature of the assay: Muscarinic 3 Receptor Binding Assay ([3H]NMS competition, SPA). To be noted: [3H]NMS 0.1 nM, CHO-K1 cell membranes, 16 hours at room temperature; read-out: M3 pIC50 (converted). As to the method:
Muscarinic 3 Receptor Binding Assay
The affinity (pIC50) of compounds binding to the M3 receptor is determined by competition binding of [^3H]N-methyl scopolamine (NMS) to CHO-K1 (Chinese Hamster Ovary) cell membranes expressing the human muscarinic acetylcholine M3 receptor (M3-ACh) in a scintillation proximity assay (SPA) format.
SPA beads are precoated with membranes and then incubated at 2 mg of beads per well with serial dilutions of compounds of the invention, [^3H]NMS at 0.1 nM, quarter Kd (experimentally determined dissociation constant) and assay buffer (20 mM HEPES pH 7.4 containing 5 mM MgCl2). The assay is conducted in a final volume of 200 μL, in the presence of 1% (v/v) dimethyl sulphoxide (DMSO). Total binding of [^3H]NMS is determined in the absence of competing compound and non-specific binding of [^3H]NMS is determined in the presence of 1 μM atropine. The plates are incubated for 16 hours at room temperature and then read on Wallac Microbeta™ using a normalised ^3H protocol. The pIC50, defined as the negative logarithm of the molar concentration of compound required for 50% reduction in specific [^3H]-NMS binding, is determined.

T1 sequence (P07550 whole entry): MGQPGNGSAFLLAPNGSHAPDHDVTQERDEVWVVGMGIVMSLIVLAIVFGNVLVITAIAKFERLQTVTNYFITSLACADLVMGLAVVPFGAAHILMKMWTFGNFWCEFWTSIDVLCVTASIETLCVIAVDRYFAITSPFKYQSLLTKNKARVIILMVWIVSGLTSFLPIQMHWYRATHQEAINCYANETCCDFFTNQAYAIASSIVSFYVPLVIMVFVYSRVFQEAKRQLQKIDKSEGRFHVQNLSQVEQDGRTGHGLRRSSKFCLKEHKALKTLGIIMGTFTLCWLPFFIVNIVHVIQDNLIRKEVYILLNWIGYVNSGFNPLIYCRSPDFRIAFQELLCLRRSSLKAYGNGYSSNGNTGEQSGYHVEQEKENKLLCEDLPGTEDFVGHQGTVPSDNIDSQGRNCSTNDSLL
T2 sequence (P20309 whole entry): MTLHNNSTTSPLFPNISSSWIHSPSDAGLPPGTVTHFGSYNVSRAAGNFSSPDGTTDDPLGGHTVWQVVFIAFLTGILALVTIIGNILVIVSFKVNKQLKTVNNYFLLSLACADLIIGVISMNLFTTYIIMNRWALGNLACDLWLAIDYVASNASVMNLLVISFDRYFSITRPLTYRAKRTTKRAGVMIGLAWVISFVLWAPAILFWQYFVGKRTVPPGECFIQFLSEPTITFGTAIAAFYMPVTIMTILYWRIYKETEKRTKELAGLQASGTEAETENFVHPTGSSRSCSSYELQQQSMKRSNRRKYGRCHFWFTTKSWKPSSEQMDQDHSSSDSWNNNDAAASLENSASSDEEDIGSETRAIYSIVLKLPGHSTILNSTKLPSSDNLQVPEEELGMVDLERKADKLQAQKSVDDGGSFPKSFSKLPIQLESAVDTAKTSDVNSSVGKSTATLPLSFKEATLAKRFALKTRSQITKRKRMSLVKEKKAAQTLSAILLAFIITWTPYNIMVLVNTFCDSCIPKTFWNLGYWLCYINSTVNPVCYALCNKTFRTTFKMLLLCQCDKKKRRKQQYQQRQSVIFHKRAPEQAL

With `Cc1nc(C(=O)N2CCOC3(CCN(Cc4ccc(CCNC[C@H](O)c5ccc(O)c6[nH]c(=O)ccc56)s4)CC3)C2)cs1` [Example 14, (R)-8-Hydroxy-5-(1-hydroxy-2-(2-(5-((4-(2-methylthiazole-4-carbonyl)-1-oxa-4,9-diazaspiro[5.5]undecan-9-yl)methyl)thiophen-2-yl)ethylamino)ethyl)quinolin-2(1H)-one ditrifluoroacetate], in assay [1], the EC50 is 5.01 nM and the “β2 Intrinsic activity” value is recorded as 0.9. Moreover, in assay [2], the IC50 was 6.31 nM.
The matching figures for `Cc1ccc(C(=O)N2CCOC3(CCN(Cc4cccc(CCNC[C@H](O)c5ccc(O)c6[nH]c(=O)sc56)c4)CC3)C2)s1` [Example 15, (R)-4-Hydroxy-7-(1-hydroxy-2-(3-((4-(5-methylthiophene-2-carbonyl)-1-oxa-4,9-diazaspiro[5.5]undecan-9-yl)methyl)phenethylamino)ethyl)benzo[d]thiazol-2(3H)-one trifluoroacetate]: 2.51 nM, 0.9 and 1.26 nM.
Regarding `Cc1nc(C(=O)N2CCOC3(CCN(Cc4ccc(CCNC[C@H](O)c5ccc(O)c6[nH]c(=O)sc56)cc4)CC3)C2)cs1` [Example 16, (R)-4-Hydroxy-7-(1-hydroxy-2-(4-((4-(2-methylthiazole-4-carbonyl)-1-oxa-4,9-diazaspiro[5.5]undecan-9-yl)methyl)phenethylamino)ethyl)benzo[d]thiazol-2(3H)-one ditrifluoroacetate], in assay [1], the EC50 was 15.8 nM and the “β2 Intrinsic activity” value amounted to 0.9. Moreover, the IC50 in assay [2] was 7.94 nM.
In the same order, the values of `Cc1nc(C(=O)N2CCOC3(CCN(Cc4ccc(CCNC[C@H](O)c5ccc(O)c6[nH]c(=O)ccc56)cc4)CC3)C2)cs1` [Example 17, (R)-8-Hydroxy-5-(1-hydroxy-2-(4-((4-(2-methylthiazole-4-carbonyl)-1-oxa-4,9-diazaspiro[5.5]undecan-9-yl)methyl)phenethylamino)ethyl)quinolin-2(1H)-one ditrifluoroacetate] are 50.1 nM, 0.5 and 50.1 nM.
The matching figures for `Cc1nc(C(=O)N2CCOC3(CCN(CCOc4cc(C)c(CNC[C@H](O)c5ccc(O)c6[nH]c(=O)sc56)cc4C)CC3)C2)cs1` [Example 18, (R)-7-(2-(2,5-Dimethyl-4-(2-(4-(2-methylthiazole-4-carbonyl)-1-oxa-4,9-diazaspiro[5.5]undecan-9-yl)ethoxy)benzylamino)-1-hydroxyethyl)-4-hydroxybenzo[d]thiazol-2(3H)-one ditrifluoroacetate]: 63.1 nM, 1 and 2.51 nM.
With `Cc1nc(C(=O)N2CCOC3(CCN(Cc4cc(F)cc(CCNC[C@H](O)c5ccc(O)c6[nH]c(=O)sc56)c4)CC3)C2)cs1` [Example 19, (R)-7-(2-(3-Fluoro-5-((4-(2-methylthiazole-4-carbonyl)-1-oxa-4,9-diazaspiro[5.5]undecan-9-yl)methyl)phenethylamino)-1-hydroxyethyl)-4-hydroxybenzo[d]thiazol-2(3H)-one ditrifluoroacetate], in assay [1], the EC50 was 3.16 nM and the “β2 Intrinsic activity” value was found to be 0.9. Moreover, the IC50 in assay [2] is 1.58 nM.
In the same order, the values of `Cc1ccc(C(=O)N2CCOC3(CCN(CCc4cccc(CNC[C@H](O)c5ccc(O)c6[nH]c(=O)sc56)c4)CC3)C2)s1` [Example 20, (R)-4-Hydroxy-7-(1-hydroxy-2-(3-(2-(4-(5-methylthiophene-2-carbonyl)-1-oxa-4,9-diazaspiro[5.5]undecan-9-yl)ethyl)benzylamino)ethyl)benzo[d]thiazol-2(3H)-one ditrifluoroacetate] are 200 nM, 0.8 and 31.6 nM.
In the same order, the values of `Cc1nc(C(=O)N2CCOC3(CCN(CCc4ccc(CNC[C@H](O)c5ccc(O)c6[nH]c(=O)sc56)s4)CC3)C2)cs1` [Example 21, (R)-4-Hydroxy-7-(1-hydroxy-2-((5-(2-(4-(2-methylthiazole-4-carbonyl)-1-oxa-4,9-diazaspiro[5.5]undecan-9-yl)ethyl)thiophen-2-yl)methylamino)ethyl)benzo[d]thiazol-2(3H)-one ditrifluoroacetate] are 200 nM, 0.5 and 1 nM.
In the same order, the values of `CC(C)c1nc(C(=O)N2CCOC3(CCN(Cc4cccc(CCNC[C@H](O)c5ccc(O)c6[nH]c(=O)sc56)c4)CC3)C2)cs1` [Example 22, (R)-4-Hydroxy-7-O-hydroxy-2-(3-((4-(2-isopropylthiazole-4-carbonyl)-1-oxa-4,9-diazaspiro[5.5]undecan-9-yl)methyl)phenethylamino)ethyl)benzo[d]thiazol-2(3H)-one ditrifluoroacetate] are 10 nM, 0.9 and 0.126 nM.
Consider `CC(C)c1nc(C(=O)N2CCOC3(CCN(Cc4cccc(CCNC[C@H](O)c5ccc(O)c6[nH]c(=O)ccc56)c4)CC3)C2)cs1` [Example 23, (R)-8-Hydroxy-5-(1-hydroxy-2-(3-((4-(2-isopropylthiazole-4-carbonyl)-1-oxa-4,9-diazaspiro[5.5]undecan-9-yl)methyl)phenethylamino)ethyl)quinolin-2(1H)-one ditrifluoroacetate], for which, in assay [1], the EC50 is 15.8 nM and the “β2 Intrinsic activity” value is recorded as 0.9. For the same compound, the IC50 in assay [2] was 0.251 nM.
The matching figures for `Cc1nc(C(=O)N2CCOC3(CCN(CCOc4cccc(CCNC[C@H](O)c5ccc(O)c6[nH]c(=O)sc56)c4)CC3)C2)cs1` [Example 24, (R)-4-Hydroxy-7-(1-hydroxy-2-(3-(2-(4-(2-methylthiazole-4-carbonyl)-1-oxa-4,9-diazaspiro[5.5]undecan-9-yl)ethoxy)phenethylamino)ethyl)benzo[d]thiazol-2(3H)-one ditrifluoroacetate]: 5.01 nM, 1 and 25.1 nM.
For `O=C(c1csc(C(F)(F)F)n1)N1CCOC2(CCN(Cc3cccc(CCNC[C@H](O)c4ccc(O)c5[nH]c(=O)ccc45)c3)CC2)C1` [Example 25, (R)-8-Hydroxy-5-(1-hydroxy-2-(3-((4-(2-(trifluoromethyl)thiazole-4-carbonyl)-1-oxa-4,9-diazaspiro[5.5]undecan-9-yl)methyl)phenethylamino)ethyl)quinolin-2(1H)-one ditrifluoroacetate], in assay [1], the EC50 is 15.8 nM and the “β2 Intrinsic activity” value was 0.8. The IC50 in assay [2] is 1 nM.
Regarding `O=C(c1csc(C(F)(F)F)n1)N1CCOC2(CCN(Cc3cccc(CCNC[C@H](O)c4ccc(O)c5[nH]c(=O)sc45)c3)CC2)C1` [Example 26, (R)-4-Hydroxy-7-(1-hydroxy-2-(3-((4-(2-(trifluoromethyl)thiazole-4-carbonyl)-1-oxa-4,9-diazaspiro[5.5]undecan-9-yl)methyl)phenethylamino)ethyl)benzo[d]thiazol-2(3H)-one ditrifluoroacetate], in assay [1], the EC50 is 12.6 nM and the “β2 Intrinsic activity” value is on record as 0.8. In assay [2], the IC50 is 0.631 nM.
